This is an account of results in ChEMBL document CHEMBL5724914, “Linking interpersonal differences in gut microbiota composition and drug biotransformation activity” (2024).

Data set [1] can be described thus: The drug is tested on WLS-082 corresponding to human gut metagenome with ENA study accession number: PRJEB37062 and ENA sample accession number: ERS12561751 for biotransformation under anaerobic condition. The drug concentrations were measured over 9 timepoints collected between 0 and 24 hours of incubation by liquid-chromatography-coupled mass spectrometry (LC–MS). The following applies: 2 µM.

A short description of data set [2]: The drug is tested on WLS-027 corresponding to human gut metagenome with ENA study accession number: PRJEB37062 and ENA sample accession number: ERS12561744 for biotransformation under anaerobic condition. The drug concentrations were measured over 9 timepoints collected between 0 and 24 hours of incubation by liquid-chromatography-coupled mass spectrometry (LC–MS). The conditions noted are these: 2 µM.

The conditions of data set [3]: human gut metagenome, 24 h, 2 µM.
The conditions of data set [4]: human gut metagenome, 24 h, 2 µM. This is another data set of the same source.
Data set [5] in a line: The drug is tested on Z-021 corresponding to metagenome with ENA study accession number: PRJEB37062 and ENA sample accession number: ERS12561820 for biotransformation under anaerobic condition. The drug concentrations were measured over 9 timepoints collected between 0 and 24 hours of incubation by liquid-chromatography-coupled mass spectrometry (LC–MS). The conditions noted are these: 2 µM.

For data set [6] the following is noted: human gut metagenome, 24 h, 2 µM. This is another data set of the same source.
Data set [7] in a line: The drug is tested on Z-016 corresponding to mouse gut metagenome with ENA study accession number: PRJEB37062 and ENA sample accession number: ERS12561815 for biotransformation under anaerobic condition. The drug concentrations were measured over 9 timepoints collected between 0 and 24 hours of incubation by liquid-chromatography-coupled mass spectrometry (LC–MS). The conditions noted are these: 2 µM.

Data set [8] in a line: The drug is tested on WLS-007 corresponding to human gut metagenome with ENA study accession number: PRJEB37062 and ENA sample accession number: ERS12561742 for biotransformation under anaerobic condition. The drug concentrations were measured over 9 timepoints collected between 0 and 24 hours of incubation by liquid-chromatography-coupled mass spectrometry (LC–MS). The following applies: 2 µM.

Data set [9] is described as follows: The drug is tested on Z-004 corresponding to metagenome with ENA study accession number: PRJEB37062 and ENA sample accession number: ERS12561804 for biotransformation under anaerobic condition. The drug concentrations were measured over 9 timepoints collected between 0 and 24 hours of incubation by liquid-chromatography-coupled mass spectrometry (LC–MS). The following applies: 2 µM.

Data set [10] can be described thus: The drug is tested on Z-005 corresponding to metagenome with ENA study accession number: PRJEB37062 and ENA sample accession number: ERS12561805 for biotransformation under anaerobic condition. The drug concentrations were measured over 9 timepoints collected between 0 and 24 hours of incubation by liquid-chromatography-coupled mass spectrometry (LC–MS). The conditions noted are these: 2 µM.

For data set [11] the following is noted: human gut metagenome, 24 h, 2 µM. The source holds these as a separate data set.
Data set [12] is described as follows: The drug is tested on WLS-350 corresponding to human gut metagenome with ENA study accession number: PRJEB37062 and ENA sample accession number: ERS12561789 for biotransformation under anaerobic condition. The drug concentrations were measured over 9 timepoints collected between 0 and 24 hours of incubation by liquid-chromatography-coupled mass spectrometry (LC–MS). The following applies: 2 µM.

For data set [13] the following is noted: human gut metagenome, 24 h, 2 µM. The source holds these as a separate data set.
The conditions of data set [14]: human gut metagenome, 24 h, 2 µM. The source holds these as a separate data set.
The conditions of data set [15]: human gut metagenome, 24 h, 2 µM. The source holds these as a separate data set.
The conditions of data set [16]: human gut metagenome, 24 h, 2 µM. The source holds these as a separate data set.
The nature of data set [17]: The drug is tested on Z-027 corresponding to metagenome with ENA study accession number: PRJEB37062 and ENA sample accession number: ERS12561826 for biotransformation under anaerobic condition. The drug concentrations were measured over 9 timepoints collected between 0 and 24 hours of incubation by liquid-chromatography-coupled mass spectrometry (LC–MS). The following applies: 2 µM.

The conditions of data set [18]: human gut metagenome, 24 h, 2 µM. This is another data set of the same source.
For data set [19] the following is noted: human gut metagenome, 24 h, 2 µM. This is another data set of the same source.
The conditions of data set [20]: human gut metagenome, 24 h, 2 µM. This is another data set of the same source.

SMILES strings stand for the structures.
Also: call rule not given here.

Turning to `Br.COc1ccc2c(c1)[C@]13CCCC[C@@H]1[C@H](C2)N(C)CC3.O` [DEXTROMETHORPHAN HYDROBROMIDE], the “Bacterial Biotransformation” value in data set [1] was “Compound NOT metabolized”; in data set [2], “Compound metabolized”; in [3], “Compound NOT metabolized”; in data set [4], “Compound metabolized”; in data set [5], “Compound metabolized”; in data set [6] it was “Compound metabolized”. For the same compound, the “Bacterial Biotransformation” value is “Compound NOT metabolized” in data set [7]; “Compound NOT metabolized” in data set [8]; “Compound metabolized” in [9]; “Compound NOT metabolized” in data set [10]; “Compound NOT metabolized” in [11]; “Compound metabolized” in data set [12]. In addition, the “Bacterial Biotransformation” value is reported as “Compound NOT metabolized” in data set [13]; “Compound NOT metabolized” in [14]; “Compound NOT metabolized” in data set [15]; “Compound metabolized” in [16]; “Compound NOT metabolized” in data set [17]; “Compound metabolized” in data set [18]. In addition, the “Bacterial Biotransformation” value is on record as “Compound metabolized” in data set [19] and “Compound NOT metabolized” in [20].
Turning to `CC(=O)Nc1ccc(OC(C)=O)cc1` [DIACETAMATE], the “Bacterial Biotransformation” value in data set [1], in data set [2], in data set [3], in [4], in data set [5] and in data set [6] was “Compound metabolized” throughout. For the same compound, the “Bacterial Biotransformation” value in [7], in data set [8], in data set [9], in data set [10], in data set [11] and in data set [12] was “Compound metabolized” throughout. Besides, the “Bacterial Biotransformation” value in data set [13], in [14], in [15], in [16], in data set [17] and in data set [18] was “Compound metabolized” in each case. Also, the “Bacterial Biotransformation” value in [19] and in [20] was “Compound metabolized” in each case.
As to `CCN(CC)CCOC(=O)C1(C2CCCCC2)CCCCC1` [DICYCLOMINE], the “Bacterial Biotransformation” value is on record as “Compound metabolized” in [1]; “Compound metabolized” in [2]; “Compound metabolized” in [3]; “Compound metabolized” in data set [4]; “Compound NOT metabolized” in [5]; “Compound NOT metabolized” in data set [6]. Moreover, the “Bacterial Biotransformation” value is reported as “Compound NOT metabolized” in data set [7]; “Compound metabolized” in data set [8]; “Compound NOT metabolized” in data set [9]; “Compound NOT metabolized” in data set [10]; “Compound metabolized” in data set [11]; “Compound NOT metabolized” in [12]. In addition, the “Bacterial Biotransformation” value in [13] is given as “Compound NOT metabolized”; in [14], “Compound NOT metabolized”; in [15], “Compound NOT metabolized”; in data set [16], “Compound metabolized”; in data set [17] it was “Compound NOT metabolized”; in [18] it was “Compound metabolized”. Also, the “Bacterial Biotransformation” value in data set [19] and in [20] was “Compound NOT metabolized” each time.
Take `COc1ccc([C@@H]2Sc3ccccc3N(CCN(C)C)C(=O)[C@@H]2OC(C)=O)cc1` [DILTIAZEM]: the “Bacterial Biotransformation” value in data set [1] is reported as “Compound metabolized”; in data set [2], “Compound metabolized”; in data set [3], “Compound metabolized”; in [4], “Compound metabolized”; in data set [5], “Compound NOT metabolized”; in [6] it was “Compound NOT metabolized”. For the same compound, the “Bacterial Biotransformation” value in data set [7] is on record as “Compound metabolized”; in data set [8], “Compound NOT metabolized”; in data set [9] it was “Compound metabolized”; in [10], “Compound NOT metabolized”; in [11], “Compound NOT metabolized”; in data set [12], “Compound metabolized”. Besides, the “Bacterial Biotransformation” value in data set [13] is listed as “Compound metabolized”; in data set [14] it was “Compound metabolized”; in [15] it was “Compound NOT metabolized”; in [16], “Compound metabolized”; in data set [17], “Compound NOT metabolized”; in data set [18], “Compound metabolized”. Besides, the “Bacterial Biotransformation” value in data set [19] and in [20] was “Compound metabolized” in each case.
For the compound `OCCN(CCO)c1nc(N2CCCCC2)c2nc(N(CCO)CCO)nc(N3CCCCC3)c2n1` [DIPYRIDAMOLE], the “Bacterial Biotransformation” value is given as “Compound NOT metabolized” in data set [1]; “Compound metabolized” in [2]; “Compound metabolized” in data set [3]; “Compound metabolized” in data set [4]; “Compound metabolized” in data set [5]; “Compound metabolized” in data set [6]. The “Bacterial Biotransformation” value is “Compound NOT metabolized” in data set [7]; “Compound metabolized” in data set [8]; “Compound NOT metabolized” in data set [9]; “Compound metabolized” in [10]; “Compound NOT metabolized” in [11]; “Compound metabolized” in data set [12]. Besides, the “Bacterial Biotransformation” value in [13] was “Compound metabolized”; in [14], “Compound NOT metabolized”; in data set [15], “Compound NOT metabolized”; in data set [16], “Compound metabolized”; in [17], “Compound metabolized”; in data set [18], “Compound metabolized”. In addition, the “Bacterial Biotransformation” value was “Compound NOT metabolized” in data set [19] and “Compound metabolized” in data set [20].
As for `COc1cc2nc(N3CCN(C(=O)C4COc5ccccc5O4)CC3)nc(N)c2cc1OC.CS(=O)(=O)O` (stereo not given) [DOXAZOSIN MESYLATE], the “Bacterial Biotransformation” value is “Compound metabolized” in data set [1]; “Compound metabolized” in data set [2]; “Compound metabolized” in [3]; “Compound metabolized” in data set [4]; “Compound NOT metabolized” in data set [5]; “Compound metabolized” in data set [6]. For the same compound, the “Bacterial Biotransformation” value was “Compound NOT metabolized” in data set [7]; “Compound metabolized” in data set [8]; “Compound NOT metabolized” in [9]; “Compound metabolized” in data set [10]; “Compound NOT metabolized” in data set [11]; “Compound metabolized” in [12]. Further, the “Bacterial Biotransformation” value in [13] is reported as “Compound NOT metabolized”; in data set [14], “Compound NOT metabolized”; in [15] it was “Compound NOT metabolized”; in data set [16] it was “Compound metabolized”; in data set [17], “Compound NOT metabolized”; in data set [18], “Compound metabolized”. For the same compound, the “Bacterial Biotransformation” value was “Compound NOT metabolized” in data set [19] and “Compound metabolized” in data set [20].
